According to patent EP4257135A1, “BENZIMIDAZOLE DERIVATIVES FOR PULMONARY ARTERIAL HYPERTENSION” (Justus-Liebig-Universität Gießen, priority 2022, dated 2023):

System: PAH-FBs
Assay: Cell proliferation by BrdU incorporation in PAH fibroblasts
Assay type: cell-based, human
Conditions: PAH-FBs isolated ex vivo; various concentrations; vs DMSO; 24 h
Description: Diese Untersuchungen führten zu der Erkenntnis, dass die epigenetische Regulation der entwicklungsbedingten TF-Expression in der Lunge durch Modulation der EP300/CREBBP-Funktion rückgängig gemacht werden kann. Die Wirkung des niedermolekularen Inhibitors (Substanz, Wirkstoff) SGC-CBP30 auf die Proliferation von Gefäßzellen, die Apoptose sowie die Gen- und Proteinexpression wurde mit Hilfe geeigneter Assays nach der Transfektion untersucht. Nachdem Zellen zur Subkonfluenz gewachsen sind, wurde ihnen mit steigenden Konzentrationen der selektive EP300-Inhibitor SGC-CBP30 (Sigma, Katalognummer: SML1133) hinzugefügt. Die aus PAH-Patienten isolierten FBs wurden also mit dem isoformselektiven HAT-Inhibitor SGC-CBP30 behandelt. Gleichzeitig wurde den Zellen das Lösungsmittel DMSO (Sigma) mit entsprechenden Konzentrationen hinzugefügt. […]
• A: PAH-FBs wurden mit siRNAs (siP300) behandelt, die auf EP300 abzielen (n=3), um die genspezifische funktionelle Rolle von EP300 bei der Hyperproliferation ex vivo 48 Stunden nach der Transfektion zu untersuchen. […] Skalenbalken: 50 µm. • E: Die Wirkung der P300-Inhibition (200 µM) auf den Gefäßumbau wurde durch Quantifizierung der prozentualen medialen Wanddicke in den mit dem EP300/CREBBP-Inhibitor SGC-CBP30 inkubierten PCLS im Vergleich zu den mit DMSO inkubierten Kontrollen bewertet. […]

COc1ccc(CCc2nc3cc(-c4c(C)noc4C)ccc3n2C[C@H](C)N2CCOCC2)cc1Cl [SGC-CBP30, 2-[2-(3-Chloro-4-methoxyphenyl)ethyl]-5-(3,5-dimethyl-1,2-oxazol-4-yl)-1-[(S)-2-(morpholin-4-yl)propyl]-1H-benzimidazole]
hyperproliferativer Phänotyp (Zellproliferation, BrdU): schwächte den hyperproliferativen Phänotyp und die Apoptoserate von PAH-FBs und PAH-SMCs deutlich ab
